According to patent US6417197B1, “Acylated n-hydroxy methyl thalidomide prodrugs with immunomodulator action” (Gruenenthal GmbH, priority 1996, dated 2002):
Converted amounts (≈) assume the structure as drawn.

Key:
[1] = for solubility in water, corresponding thalidomide amount: thalidomide equivalent of the water solubility; for solubility: water, 25 °C
serum IL-2 = test: SEB-induced increase in serum IL-2 in galactosamine-pretreated balb/c mice; assay type: in vivo; conditions: 30 minutes before SEB; for Max. inhibition of the increase in serum IL-2 at a dose of 400 mg/kg: 400 mg/kg intraperitoneally, IL-2 2 hours after SEB, balb/c mice
[2] = Arch. Pharm. 321, 371 (1988); cited from earlier work
release of TNF-α = test: LPS-induced release of TNF-α in human mononuclear cells of the peripheral blood (ELISA); assay type: cell-based; conditions: LPS stimulation; for inhibition at 50 µg/mL: read-out: Inhibition of the release of TNF-α at a final concentration of 50 μg/ml; for IC50: Homo sapiens, linear regression line, read-out: IC50 (50% inhibition of the release of TNF-α)
Procedure: The release of TNF-α was investigated in vitro on human mononuclear cells of the peripheral blood (T cells, B cells and monocytes), after stimulation with lipopolysaccharide (LPS). LPS is a constituent of the bacterial cell wall and stimulates monocytes and macrophages.
Mononuclear cells were obtained from the heparin-treated blood of at least three volunteer donors. For this purpose, 20 ml blood in each case were separated by known methods via a Ficoll-Paque gradient, and the cells were harvested and washed three times with a cell culture medium. The cell culture medium which was used consisted of RPMI 1640 medium, supplemented with 2 mM glutamine (Life Technologies, Eggenstein), 10% foetal calf serum (Life Technologies), […] streptomycin (Sigma, Deisenhofen), 50 IU/ml penicillin (Sigma, Deisenhofen) and 100 μM β-mercaptoethanol (Merck, Darmstadt). The mononuclear cells were subsequently taken up in 15 ml cell culture medium and were divided into 1 ml batches in sterile 24-hole incubation plates (Sigma) 1 μl dimethylsulphoxide (DMSO, Merck) was added to the 1 ml batches which were used as the control batch. 1 μl of a solution of a compound according to the invention (in DMSO; final concentration in the test: 0.5; 5; 12.5 and 50 μg/ml) was added to the test batches. The batches were incubated for one hour in a CO2 incubation cabinet (5% CO2, 90% atmospheric humidity). 2.5 μg LPS (from E. coli 0127: B8, Sigma, Deisenhofen) was subsequently added as a stimulant to each batch with the exception of the control batches. Incubation of the cultures was continued for 20 hours. Following the incubation, the concentration of TNF-α in the cell culture supernatant liquors was determined by ELISA tests (Boehringer Mannheim).

[3] = 50 μg/ml, 20 hours, human mononuclear cells

| Molecule | solubility in water, corresponding thalidomide amount [1] | solubility [1] | Max. inhibition of the increase in serum IL-2 at a dose of 400 mg/kg (serum IL-2) | inhibition at 50 µg/mL (release of TNF-α; [3]) | other results |
| --- | --- | --- | --- | --- | --- |
| Cl.NCC(=O)NCC(=O)OCN1C(=O)CCC(N2C(=O)c3ccccc3C2=O)C1=O (stereo not shown) [Compound 8, 2-(aminomethylcarbonylamino) acetic acid-[3(1,3-dihydro-1,3-dioxo-2H-isoindol-2-yl)-2,6-dioxo-piperidin-1-yl]methyl ester hydrochloride] | > 190 mg thalidomide/ml | > 300 mg/mL |  |  |  |
| CNC(C)C(=O)OCN1C(=O)CCC(N2C(=O)c3ccccc3C2=O)C1=O.Cl (stereo not shown) [Compound 4, 2-m ethylaminopropionic acid-[3-(1,3-dihydro-1,3-dioxo-2H-isoindol-2-yl)-2,6-dioxopiperidin-1-yl]methyl ester hydrochloride] | > 190 mg thalidomide/ml | > 300 mg/mL | 26% |  | melting point: 147 to 151 °C |
| O=C1CCC(N2C(=O)c3ccccc3C2=O)C(=O)N1 (stereo not shown) [thalidomide] |  |  |  |  | solubility of thalidomide in water [2]: 0.012 mg/mL |
| CC(C)C(N)C(=O)OCN1C(=O)CCC(N2C(=O)c3ccccc3C2=O)C1=O.Cl (stereo not shown) [Compound 6, 2-amino-3-methylbutyric acid-[3-(1,3-dihydro-1,3-dioxo-2H-isoindol-2-yl)-2,6-dioxopiperidin-1-yl]methyl ester hydrochloride] | > 190 mg thalidomide/ml | > 300 mg/mL | 52% | 97% | melting point: 145 to 150 °C; IC50 (release of TNF-α): 2 µg/mL |
| CC(C)(C)OC(=O)NCC(=O)OCN1C(=O)CCC(N2C(=O)c3ccccc3C2=O)C1=O (stereo not shown) [Compound 1, N-t-butyl oxycarbonyl-2-aminoacetic acid-[3-(1,3-dihydro-1,3-dioxo-2H-isoindol-2-yl)-2,6-dioxopiperidin-1-yl]methyl ester] |  |  | 34% | 78% | IC50 (release of TNF-α): 2.7 µg/mL (≈ 6.06 µM) |
| [3-(1,3-dihydro-1,3-dioxo-2H-isoindol-2-yl)-2,6-dioxo-piperidin-1-yl]-methoxycarbonylpropionic acid [Compound 9] |  |  |  |  | Inhibition of the release of TNF-α at a final concentration of 50 μg/ml (release of TNF-α; [3]): 35% |
| Cl.NCC(=O)OCN1C(=O)CCC(N2C(=O)c3ccccc3C2=O)C1=O (stereo not shown) [Compound 2, 2-aminoacetic acid-[3-(1,3-dihydro-1,3-dioxo-2H-isoindol-2-yl)-2,6-dioxo-piperidin-1-yl]methyl ester hydrochloride] | 33.6 mg thalidomide/ml | 497 mg/mL | 68% | 54% | ED40 (dose giving 40% reduction in serum IL-2 concentrations) (serum IL-2; intraperitoneal, regression line): 230 mg/kg |
